{"source": "patent US6774121B1", "about": "“Phospholipid prodrugs of anti-proliferative drugs” (D-Pharm, Ltd., priority 1999, dated 2004)", "key": {"[1]": {"tested_on": "human leukemia cell line CCRF-CEM (CEM)", "assay": "MTT cell growth inhibition, CEM cells (Example 4)", "type": "cell-based", "conditions": "Homo sapiens, CCRF-CEM; 72 hours, MTT assay; read-out: EC50, nMol CEM", "protocol": "(§1) A series of methotrexate derivatives were screened for their inhibitory effect on cell growth. Three tumor cell lines were used for this screen: i) human leukemia cell line CCRF-CEM which is MTX-sensitive (herein denoted as CEM), ii) a mutant of CEM cell line which is MTX-resistant due to a mutation in the RFC (herein denoted as CEM-MTX; provided by Dr. […], Technion, Israel), and iii) rat C6 glioma cell line. Cells were seeded at a density of 10^4 cells/ml in RPMI medium supplemented with 10% FCS in 96 well plates. The cultured cells were incubated, during their linear growth phase, in the presence and absence of various concentrations of MTX derivatives. The tested compounds were prepared as 1 mM stock in absolute ethanol or DMSO and were diluted into the medium. The highest vehicle presence in the assay was 5% of the vehicle. After 72 hours at 37° C. the cytotoxic effect on the cells was estimated by using the colorimetric MTT assay (Mosmann (1983) J. Immunol Methods 65: 55-63) that measures mitochondrial reductase activity and serves for quantitative assessment of cellular viability. […] The EC50 values were calculated from dose response curves for each tested compound."}, "[2]": {"tested_on": "CEM-MTX (MTX-resistant mutant of CEM, mutation in the RFC)", "assay": "MTT cell growth inhibition, MTX-resistant CEM-MTX cells (Example 4)", "type": "cell-based, human", "conditions": "Homo sapiens; 72 hours, MTT assay; read-out: EC50, nMol CEM-MTX", "protocol": "A series of methotrexate derivatives were screened for their inhibitory effect on cell growth. Three tumor cell lines were used for this screen: i) human leukemia cell line CCRF-CEM which is MTX-sensitive (herein denoted as CEM), ii) a mutant of CEM cell line which is MTX-resistant due to a mutation in the RFC (herein denoted as CEM-MTX; provided by Dr. Y. Assraf, Technion, Israel), and iii) rat C6 glioma cell line.\nCells were seeded at a density of 10^4 cells/ml in RPMI medium supplemented with 10% FCS in 96 well plates. The cultured cells were incubated, during their linear growth phase, in the presence and absence of various concentrations of MTX derivatives. The tested compounds were prepared as 1 mM stock in absolute ethanol or DMSO and were diluted into the medium. The highest vehicle presence in the assay was 5% of the vehicle. After 72 hours at 37° C. the cytotoxic effect on the cells was estimated by using the colorimetric MTT assay (Mosmann (1983) J. Immunol Methods 65: 55-63) that measures mitochondrial reductase activity and serves for quantitative assessment of cellular viability. Drug concentration required for inhibiting the growth of 50% of cell population in culture over a 72 hour period incubation, is defined as EC50.\nThe EC50 values were calculated from dose response curves for each tested compound."}, "[3]": {"tested_on": "rat C6 glioma cell line", "assay": "MTT cell growth inhibition, C6 glioma cells (Example 4)", "type": "cell-based", "conditions": "Rattus norvegicus, C6 glioma; 72 hours, MTT assay; read-out: EC50, nMol C6 glioma", "protocol": "as §1"}, "[4]": {"tested_on": "Friend cells (an erythroleukemic cell line)", "assay": "MTT cytotoxicity, Friend cells (Example 5)", "type": "cell-based", "conditions": "72 hour", "protocol": "The toxicity of methotrexate derivatives of the invention (DP-MTX) was evaluated in an additional cell-culture system. The doses required to inhibit the growth of cultured Friend cells (an erythroleukemic cell line) by 50%, over a 72 hour period (ED50), were determined using a mitochondrial viability (MTT) endpoint assay.\nFriend cells were seeded at a density of 10^4 cells/ml in RPMI medium supplemented with 10% FCS in 96 well plates. The cultured cells were incubated, during their linear growth phase, in the presence and absence of various concentrations of MTX derivatives. After 72 hours at 37° C., cell viability was estimated by using the colorimetric MTT assay."}, "[5]": {"tested_on": "Wild type human leukemia CEM cells", "assay": "MTT cytotoxicity with and without Leucovorin, CEM cells (Example 6)", "type": "cell-based", "conditions": "CCRF-CEM, 72 hours", "protocol": "Leucovorin is a reduced folate, used in chemotherapy with high doses of methotrexate for ‘rescue’ of host from toxicity.\nWild type human leukemia CEM cells or the MTX-resistant mutant cells, CEM-MTX, were plated into 96 well plates containing RPMI, 10% FCS at a concentration of 5×10^4 cells/ml. […] Leucovorin, at a final concentration of 10 μM, was added to some of the plates as indicated. The plates were incubated for 72 hours (37° C., 5% CO2) before being assayed for viability using the colorimetric MTT assay (Mosmann (1983) J. Immunol Methods 65: 55-63)."}, "[6]": {"tested_on": "C6", "assay": "MTT cytotoxicity on tumor cell lines, C6 (Example 8)", "type": "cell-based", "conditions": "C6, Glioma (rat), 72 hours", "protocol": "(§2) Cell viability was analyzed after 72 hours incubation (37° C., 5% CO2) using the colorimetric MTT assay (Mosmann (1983) J. Immunol Methods 65: 55-63)."}, "[7]": {"tested_on": "Jurkat", "assay": "MTT cytotoxicity on tumor cell lines, Jurkat (Example 8)", "type": "cell-based", "conditions": "Homo sapiens, T-cell lymphoma, 72 hours", "protocol": "as §2"}, "[8]": {"tested_on": "Du148", "assay": "MTT cytotoxicity on tumor cell lines, Du148 (Example 8)", "type": "cell-based", "conditions": "Du148, Prostate cancer (human), 72 hours", "protocol": "as §2"}, "[9]": {"tested_on": "J774", "assay": "MTT cytotoxicity on tumor cell lines, J774 (Example 8)", "type": "cell-based", "conditions": "J774, Myeloma (mouse), 72 hours", "protocol": "as §2"}, "[10]": {"tested_on": "A431", "assay": "MTT cytotoxicity on tumor cell lines, A431 (Example 8)", "type": "cell-based", "conditions": "A-431, A431, Epidermoid carcinoma (human), 72 hours", "protocol": "as §2"}, "[11]": {"tested_on": "T47D", "assay": "MTT cytotoxicity on tumor cell lines, T47D (Example 8)", "type": "cell-based", "conditions": "Mammary cancer (human), 72 hours", "protocol": "as §2"}, "[12]": {"tested_on": "L1210", "assay": "MTT cytotoxicity, parent L1210 cells (Example 9)", "type": "cell-based", "conditions": "Mus musculus"}, "[13]": {"tested_on": "RFC-mediated MTX-resistant cell line (L1210-MTX)", "assay": "MTT cytotoxicity, L1210-MTX cells (Example 9)", "type": "cell-based", "conditions": "Mus musculus"}, "[14]": {"tested_on": "L1210 murine leukemia cells", "assay": "Survival of mice transplanted i.p. with L1210 leukemia cells", "type": "in vivo, mouse", "protocol": "The anti-tumor effects of DP-MTX were evaluated in vivo on mice transplanted with L1210 murine leukemia cells.\nMice of strain B6D2F 1/J (stock number 100006), which are F1 cross of C57/BJ×DBA/2J, were purchased from The Jackson Laboratory (JAX Mice & Mouse Model Related Services, […], USA). Animals were allowed 10 days adjustment time at our animal care facility before initiation of the experiment.\nMice were transplanted with 1×10^6 L1210 (mouse leukemia; ATCC# CCL-219) or L1210MTX (RFC-mediated MTX resistant L1210 mutant; provided by Dr. Y. Assraf, Technion, Israel) cells by injection into the peritoneum (i.p.) (day 1). […] Another group of 8 animals were injected with vehicle solution (2% propylene-glycol, 0.2% Tween-80 in PBS) and serve as control group. […] Mice survival was monitored daily until the end of the experiment on day 21."}}, "note": "Where two headings read alike, the source gives them in different places.", "data": [{"smiles": "CN(Cc1cnc2nc(N)nc(N)c2n1)c1ccc(C(=O)N[C@@H](CCC(=O)O)C(=O)O)cc1", "note": "[MTX, Methotrexate]", "values": [{"measurement": "EC50", "setting": "[1]", "value": 21, "unit": "nM"}, {"measurement": "EC50", "setting": "[2]", "value": 2540, "unit": "nM"}, {"measurement": "EC50", "setting": "[3]", "value": 46, "unit": "nM"}, {"measurement": "ED50", "setting": "[4]", "value": 10, "unit": "nmol"}, {"measurement": "EC50", "setting": "[5]; 10 μM Leucovorin, read-out: EC50, nMol + 10 μM Leucovorin", "value": "910 ± 378", "unit": "nM"}, {"measurement": "EC50", "setting": "[5]; read-out: EC50, nMol No Leucovorin", "value": "23 ± 13", "unit": "nM"}, {"measurement": "EC50", "setting": "[6]", "value": 46, "unit": "nM"}, {"measurement": "EC50", "setting": "[7]", "value": 21, "unit": "nM"}, {"measurement": "EC50", "setting": "[8]", "value": 29, "unit": "nM"}, {"measurement": "EC50", "setting": "[9]", "value": 112, "unit": "nM"}, {"measurement": "EC50", "setting": "[10]", "value": 850, "unit": "nM"}, {"measurement": "EC50", "setting": "[11]", "value": 50, "unit": "µM"}, {"measurement": "EC50", "setting": "[12]", "value": 14, "unit": "nM"}, {"measurement": "EC50", "setting": "[13]", "value": 1080, "unit": "nM"}, {"measurement": "mice surviving at the end of the experiment, on day 21", "setting": "[14]; 3 mg/Kg MTX or molar equivalent, i.p. every two days, day 3 to 17", "value": "one"}, {"measurement": "mortality caused by the treatment by itself", "setting": "[14]; 3 mg/Kg i.p.", "value": "no mortality"}, {"measurement": "day on which animal death started", "setting": "[14]; 3 mg/Kg i.p. every two days, day 3 to 17", "value": 15, "unit": "days"}]}]}
